Measured values taken from PMC4008364, “Alleviation of behavioral hypersensitivity in mouse models of inflammatory pain with two structurally different casein kinase 1 (CK1) inhibitors” (Molecular Pain, 2014).
Residue numbers refer to the chain shown, from its start. Read-outs that look alike come from different tables or passages of the source.

How the values were obtained:
[1] = biological target: T1, human CK1α (Homo sapiens, UniProt P48729); test: In vitro kinase assay (QuickScout mobility shift assay), CK1α; assay type: biochemical
T1 construct: Full-length human CK1α, CK1γ1, CK1γ2, CK1γ3; GST (N); purchased Carna Biosciences, Inc; host or cells: baculovirus system (insect cells)
T1 sequence (P48729 whole entry): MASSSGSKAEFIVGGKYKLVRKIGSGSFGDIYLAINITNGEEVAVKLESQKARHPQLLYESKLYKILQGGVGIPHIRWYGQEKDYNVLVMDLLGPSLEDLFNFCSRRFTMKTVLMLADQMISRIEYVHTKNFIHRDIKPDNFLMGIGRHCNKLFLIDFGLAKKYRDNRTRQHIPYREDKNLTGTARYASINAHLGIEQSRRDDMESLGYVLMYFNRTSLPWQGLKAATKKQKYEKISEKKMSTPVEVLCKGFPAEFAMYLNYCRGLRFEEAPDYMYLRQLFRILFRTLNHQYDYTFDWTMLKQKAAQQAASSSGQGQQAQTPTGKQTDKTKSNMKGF
Text: (§1) […]; Carna Biosciences, Inc., Kobe, Japan). Detailed information on the assay condition is available on the website of Carna Biosciences (http://www.carnabio.com). Full-length human CK1α, CK1γ1, CK1γ2, CK1γ3 and catalytic domain of human CK1ϵ were expressed as N-terminal GST-fusion protein using baculovirus system, and purified by using glutathione sepharose chromatography. Catalytic domain of CK1δ was expressed as N-terminal GST-fusion protein in E. coli, and purified by using glutathione sepharose chromatography.

[2] = biological target: T2, CK1δ (Homo sapiens, UniProt P48730); test: In vitro kinase assay (QuickScout mobility shift assay), CK1δ; assay type: biochemical
T2 construct: Catalytic domain of CK1δ was expressed as N-terminal GST-fusion protein in E. coli; GST (N); purchased Carna Biosciences, Inc; host or cells: E. coli
T2 sequence (P48730 9-277 limits assumed): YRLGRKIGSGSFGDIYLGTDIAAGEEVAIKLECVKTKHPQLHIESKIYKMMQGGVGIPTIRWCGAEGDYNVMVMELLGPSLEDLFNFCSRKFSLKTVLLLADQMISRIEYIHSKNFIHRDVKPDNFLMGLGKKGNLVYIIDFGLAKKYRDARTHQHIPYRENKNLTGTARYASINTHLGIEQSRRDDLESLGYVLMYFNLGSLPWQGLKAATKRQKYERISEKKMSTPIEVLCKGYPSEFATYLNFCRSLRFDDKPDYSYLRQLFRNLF
Text: (§2) Detailed information on the assay condition is available on the website of Carna Biosciences (http://www.carnabio.com). Full-length human CK1α, CK1γ1, CK1γ2, CK1γ3 and catalytic domain of human CK1ϵ were expressed as N-terminal GST-fusion protein using baculovirus system, and purified by using glutathione sepharose chromatography. Catalytic domain of CK1δ was expressed as N-terminal GST-fusion protein in E. coli, and purified by using glutathione sepharose chromatography.

[3] = biological target: T3, human CK1ϵ (Homo sapiens, UniProt P49674); test: In vitro kinase assay (QuickScout mobility shift assay), CK1ϵ; assay type: biochemical; conditions: substrate peptide CKtide; ATP at Km 16 μM; average of duplicated experiments
T3 construct: catalytic domain of human CK1ϵ were expressed as N-terminal GST-fusion protein; GST (N); purchased Carna Biosciences, Inc; host or cells: baculovirus system (insect cells)
T3 sequence (P49674 9-277 limits assumed): T2 sequence (P48730 9-277 limits assumed) with T19A, D20N, A23S, I47F, T59S, R61K, A241S
Text: as §2

[4] = biological target: T4, human CK1γ1 (Homo sapiens, UniProt Q9HCP0); test: In vitro kinase assay (QuickScout mobility shift assay), CK1γ1; assay type: biochemical
T4 construct: Full-length human CK1α, CK1γ1, CK1γ2, CK1γ3; GST (N); purchased Carna Biosciences, Inc; host or cells: baculovirus system (insect cells)
T4 sequence (Q9HCP0 whole entry): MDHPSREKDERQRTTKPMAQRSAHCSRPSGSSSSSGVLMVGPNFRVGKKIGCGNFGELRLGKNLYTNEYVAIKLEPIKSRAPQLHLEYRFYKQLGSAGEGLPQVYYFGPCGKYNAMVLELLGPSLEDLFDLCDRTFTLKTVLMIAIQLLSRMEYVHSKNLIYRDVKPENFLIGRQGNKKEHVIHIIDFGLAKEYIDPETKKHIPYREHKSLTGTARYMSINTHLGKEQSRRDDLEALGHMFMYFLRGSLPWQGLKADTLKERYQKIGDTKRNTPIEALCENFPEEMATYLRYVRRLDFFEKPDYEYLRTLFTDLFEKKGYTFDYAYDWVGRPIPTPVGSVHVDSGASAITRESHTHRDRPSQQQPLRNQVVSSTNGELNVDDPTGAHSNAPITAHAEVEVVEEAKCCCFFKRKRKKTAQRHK
Text: as §1

[5] = biological target: T5, human CK1γ2 (Homo sapiens, UniProt P78368); test: In vitro kinase assay (QuickScout mobility shift assay), CK1γ2; assay type: biochemical
T5 construct: Full-length human CK1α, CK1γ1, CK1γ2, CK1γ3; GST (N); purchased Carna Biosciences, Inc; host or cells: baculovirus system (insect cells)
T5 sequence (P78368 whole entry): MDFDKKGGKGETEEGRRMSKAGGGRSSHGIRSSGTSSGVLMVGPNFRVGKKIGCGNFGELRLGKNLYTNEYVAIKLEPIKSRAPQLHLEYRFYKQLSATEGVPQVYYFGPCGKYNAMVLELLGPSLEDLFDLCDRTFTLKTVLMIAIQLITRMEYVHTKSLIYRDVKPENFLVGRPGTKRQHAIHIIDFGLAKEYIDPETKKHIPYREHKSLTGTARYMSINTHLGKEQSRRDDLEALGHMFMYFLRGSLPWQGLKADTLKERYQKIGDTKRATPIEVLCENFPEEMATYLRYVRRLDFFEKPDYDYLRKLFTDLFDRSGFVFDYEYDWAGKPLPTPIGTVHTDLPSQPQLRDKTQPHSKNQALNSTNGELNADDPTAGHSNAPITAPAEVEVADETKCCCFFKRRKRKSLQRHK
Text: as §2

[6] = biological target: T6, human CK1γ3 (Homo sapiens, UniProt Q9Y6M4); test: In vitro kinase assay (QuickScout mobility shift assay), CK1γ3; assay type: biochemical; conditions: substrate peptide CKtide; ATP at Km 3.2 μM; average of duplicated experiments
T6 construct: Full-length human CK1α, CK1γ1, CK1γ2, CK1γ3; GST (N); purchased Carna Biosciences, Inc; host or cells: baculovirus system (insect cells)
T6 sequence (Q9Y6M4 whole entry): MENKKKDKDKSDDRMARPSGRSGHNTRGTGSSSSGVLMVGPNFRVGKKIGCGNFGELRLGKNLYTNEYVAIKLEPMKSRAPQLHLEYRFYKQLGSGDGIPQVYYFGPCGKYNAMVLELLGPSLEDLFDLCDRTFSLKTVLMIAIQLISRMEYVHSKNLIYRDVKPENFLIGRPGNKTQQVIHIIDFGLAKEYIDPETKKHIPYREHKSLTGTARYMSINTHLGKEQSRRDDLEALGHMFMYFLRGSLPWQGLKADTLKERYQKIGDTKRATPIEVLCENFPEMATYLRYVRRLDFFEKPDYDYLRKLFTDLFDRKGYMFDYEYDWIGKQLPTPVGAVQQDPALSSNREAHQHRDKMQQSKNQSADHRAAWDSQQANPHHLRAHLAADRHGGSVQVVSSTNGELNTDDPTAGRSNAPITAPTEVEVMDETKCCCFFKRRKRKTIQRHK
Text: as §2

[7] = test system: carrageenan-induced inflammatory pain in mice; test: Carrageenan-induced acute inflammatory pain behaviors, intrathecal injection; assay type: in vivo, mouse; conditions: for withdrawal latency of the ipsilateral hind paw (thermal hyperalgesia), carrageenan / withdrawal threshold of the ipsilateral hind paw (mechanical allodynia), carrageenan: i.t., IC261 0.1-1 nmol, TG003 0.1-100 pmol
Protocol: (§3) Male C57BL/6 J mice (5 weeks old) were purchased from Clea Japan, Inc. (Tokyo, Japan) and housed under controlled temperature (24 ± 1°C) and humidity (55 ± 10%) with a 12-hour light-dark cycle with food and water freely available. The animal experiments were approved by the Animal Care Committees of Tokyo Medical and Dental University (approval No. 0090173) and Kagoshima University (approval No. MD10053), and were conducted in accordance with the ethical guidelines for the study of experimental pain in conscious animals published by the International Association of the Study of Pain (1995) and the European Communities Council Directive of 24 November, 1986 (86/609/EEC).
(§4) To produce acute and persistent inflammatory pain, carrageenan (2% lambda carrageenan in saline, 25 μl, Sigma, St. Louis, MO) and complete Freund’s adjuvant (CFA, 25 μl, Sigma) were injected into the plantar surface of the right hindpaw under light halothane anesthesia, respectively. Control mice were treated with saline or incomplete Freund’s adjuvant (IFA, Sigma), respectively. Mechanical allodynia and thermal hyperalgesia were measured using the Dynamic Plantar Aesthesiometer (Ugo Basile, Comerio VA, Italy) and the Paw Thermal Stimulator (UCSD, San Diego, CA, USA), respectively as described. In CFA model, these behavioral experiments were conducted 3 days after the injection. Intrathecal (i.t.) injection was given in a volume of 5 μl by percutaneous puncture through an intervertebral space at the level of the 5th or 6th lumbar vertebra, according to a previously reported procedure. An investigator, who was unaware of the drug treatment, performed all of the behavioral experiments.

[8] = test system: CFA-induced inflammatory pain in mice; test: CFA-induced persistent inflammatory pain behaviors, intrathecal injection; assay type: in vivo, mouse; conditions: for withdrawal latency of the ipsilateral hind paw (thermal hyperalgesia), CFA / withdrawal threshold of the ipsilateral hind paw (mechanical allodynia), CFA: i.t., IC261 0.1-1 nmol, TG003 0.1-100 pmol, 3 days after CFA
Protocol: as §3, §4

[9] = test system: substantia gelatinosa neurons; test: Whole-cell patch-clamp recording of sEPSCs in spinal cord slices; assay type: cell-based, mouse; conditions: for frequency and amplitude of sEPSCs, control mice: 1 μM superfusion, slices from control mice, holding potential -70 mV; for mean frequency of sEPSCs in inflammatory pain model mice: 1 μM, carrageenan- and CFA-inflamed mice
Protocol: (§5) Adult mouse spinal cord slices were prepared according to the method of Yoshimura & Jessell. Briefly, 6 hours after carrageenan or saline injection, and 3 days after CFA or IFA injection, transverse slices (thickness, 800-900 μm) of the L5 spinal segments with the L5 dorsal root attached were cut on a vibrating blade microtome. The slices were superfused with Krebs solution (10-15 ml/min) saturated with 95% O2 and 5% CO2 at 36 ± 1°C. The composition of Krebs solution was as follows (in mM): NaCl 117; KCl 3.6; NaHCO3 25; NaH2PO4 1.2; CaCl2 2.5; MgCl2 1.2, and glucose 11 (pH 7.4 after gas saturation).
Blind whole-cell patch-clamp recordings were made from the lamina II (substantia gelatinosa: SG) neurons ipsilateral to carrageenan, CFA, or vehicle (saline or IFA) injection in voltage clamp mode. Patch pipettes were fabricated from thin-walled, borosilicate, glass-capillary tubing (1.5 mm o.d., World Precision Instruments). After establishing the whole-cell configuration, neurons were held at the potential of -70 mV to record spontaneous excitatory postsynaptic currents (sEPSCs) and at the potential of 0 mV to record spontaneous inhibitory postsynaptic currents (sIPSC). Under these conditions, GABA- and glycine-mediated IPSCs and glutamate-mediated EPSCs, respectively, were negligible, because these holding potential were close to the reversal potentials of IPSCs and EPSCs, respectively. Recording electrodes were filled with either potassium gluconate-based solution (in mM: K-gluconate 135; KCl 5; CaCl2 0.5; MgCl2 2; EGTA 5; HEPES 5; ATP-Mg 5; adjusted with KOH to pH 7.2) to investigate EPSCs, or Cs-based solution (in mM: Cs2SO4 110; tetraethylammonium 5; CaCl2 0.5; MgCl2 2; EGTA 5; HEPES 5; ATP-Mg 5; adjusted with CsOH to pH 7.2) to examine IPSCs. The resistance of a typical patch pipette is 5-10 MΩ. Membrane currents were amplified with an Axopatch 200B amplifier (Molecular Devices, Sunnyvale, CA, USA) in voltage-clamp mode. Signals were low-pass filtered at 5 kHz and digitized at 333 kHz with an A/D converter (Digidata 1322, Molecular Devices). Data were stored with a personal computer using pCLAMP10 software and analyzed with Mini Analysis software (Synaptosoft Inc., Decatur, GA, USA).
(§6) The average values of both frequency and amplitude of sEPSCs or sIPSCs during the control (1 min) and 5-10 min after the drug application (1 min period after the attainment of steady effect of each drug) were calculated and quantified as relative changes in frequency and amplitude.

[10] = test system: substantia gelatinosa neurons; test: Whole-cell patch-clamp recording of sIPSCs in spinal cord slices; assay type: cell-based, mouse; conditions: 1 μM, holding potential 0 mV
Protocol: as §5
Blind whole-cell patch-clamp recordings were made from the lamina II (substantia gelatinosa: SG) neurons ipsilateral to carrageenan, CFA, or vehicle (saline or IFA) injection in voltage clamp mode. Patch pipettes were fabricated from thin-walled, borosilicate, glass-capillary tubing (1.5 mm o.d., World Precision Instruments). […] Data were stored with a personal computer using pCLAMP10 software and analyzed with Mini Analysis software (Synaptosoft Inc., Decatur, GA, USA).
as §6

[11] = biological target: T7, CK1ϵ (Homo sapiens, UniProt P49674); test: PER3 nuclear translocation assay, HEK293 cells expressing CK1ϵ; assay type: cell-based; conditions: 1 hour pre-incubation, 8 hours doxycycline
T7 construct: F2A peptide (self-cleaving link to EGFP; its remnant stays on the CK1 C-terminus) (C); expressed in transfected cells; co-expressing mCherry-PER3
T7 sequence (P49674 whole entry): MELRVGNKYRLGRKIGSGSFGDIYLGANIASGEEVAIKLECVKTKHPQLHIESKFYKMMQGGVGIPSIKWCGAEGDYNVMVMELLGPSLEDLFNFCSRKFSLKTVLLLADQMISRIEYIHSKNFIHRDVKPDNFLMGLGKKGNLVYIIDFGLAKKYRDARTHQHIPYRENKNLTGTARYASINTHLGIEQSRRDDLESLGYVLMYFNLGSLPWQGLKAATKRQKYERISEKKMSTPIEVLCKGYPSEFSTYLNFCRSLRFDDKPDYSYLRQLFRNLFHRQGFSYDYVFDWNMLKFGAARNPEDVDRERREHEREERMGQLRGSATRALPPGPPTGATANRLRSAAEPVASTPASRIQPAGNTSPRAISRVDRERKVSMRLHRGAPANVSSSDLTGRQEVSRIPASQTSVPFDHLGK

[12] = test system: Clk1; parameters: method as in PMID 15010457; conditions: range given for Clk1 and 4 isoforms together; read-out: IC50 against Clk1; cited from earlier work
[13] = biological target: CK1δ (Homo sapiens, UniProt P48730); test: PER3 nuclear translocation assay, HEK293 cells expressing CK1δ; conditions: 30 μM, 1 hour pre-incubation, 8 hours doxycycline

For `COc1cc(OC)c(C=C2C(O)=Nc3ccccc32)c(OC)c1` [IC261], the IC50 [1] was 190 nM, the IC50 [2] was 600 nM and the IC50 [3] was 860 nM. For the same molecule, the IC50 [4] was > 30000 nM, the IC50 [5] was > 30000 nM and the IC50 [6] was > 30000 nM. For the same molecule, the “withdrawal latency of the ipsilateral hind paw (thermal hyperalgesia), carrageenan” value [7] was “dose-dependently increased”, the “withdrawal threshold of the ipsilateral hind paw (mechanical allodynia), carrageenan” value [7] was “dose-dependently increased” and the “development of thermal hyperalgesia induced by carrageenan” value ([7]; spinal preemptive treatment, i.t. 30 min before carrageenan) was “dose-dependently attenuated”. The “withdrawal latency of the ipsilateral hind paw (thermal hyperalgesia), CFA” value [8] was “dose-dependently increased”, the “withdrawal threshold of the ipsilateral hind paw (mechanical allodynia), CFA” value [8] was “dose-dependently increased” and the “frequency and amplitude of sEPSCs, control mice” value [9] was “altered neither the frequency nor the amplitude of sEPSCs”. The “mean frequency of sEPSCs in inflammatory pain model mice” value [9] was “decreased”, the “sIPSCs from the inflamed mice” value ([10]; carrageenan- and CFA-inflamed mice) was “did not affect sIPSCs” and the “mean amplitude of control sIPSCs” value ([10]; control mice) was “slight but significant reduction”.
For `Nc1nccc(-c2c(-c3ccc(F)cc3)ncn2C2CCCCC2)n1` [PF-670462], the “CK1ϵ-induced nuclear translocation of mCherry-PER3” value ([11]; 1 μM) was “also inhibited the nuclear translocation”.
With `CCN1/C(=C/C(C)=O)Sc2ccc(OC)cc21` [TG003] the IC50 ([1]; substrate peptide CKtide, ATP at Km 4.1 μM, average of duplicated experiments, read-out: IC50 on the kinase activity of CK1α) was 330 nM, the IC50 ([4]; substrate peptide CKtide, ATP at Km 6.3 μM, average of duplicated experiments, read-out: IC50 on the kinase activity of CK1γ1) was 1500 nM and the “CK1ϵ-induced nuclear translocation of mCherry-PER3” value ([11]; 30 μM) was “inhibited the nuclear translocation of mCherry-PER3”. For the same molecule, the “withdrawal latency of the ipsilateral hind paw (thermal hyperalgesia), carrageenan” value [7] was “dose-dependently increased”, the “withdrawal threshold of the ipsilateral hind paw (mechanical allodynia), carrageenan” value [7] was “dose-dependently increased” and the CFA-induced mechanical allodynia ([8]; 1 pmol i.t.) was “significantly reversed”. The CFA-induced thermal hyperalgesia ([8]; 1 pmol i.t.) was “did not affect”, the “withdrawal latency of the ipsilateral hind paw (thermal hyperalgesia), CFA” value [8] was “dose-dependently increased” and the “withdrawal threshold of the ipsilateral hind paw (mechanical allodynia), CFA” value [8] was “dose-dependently increased”. The “frequency and amplitude of sEPSCs, control mice” value [9] was “altered neither the frequency nor the amplitude of sEPSCs”, the “mean frequency of sEPSCs in inflammatory pain model mice” value [9] was “decreased” and the IC50 [12] was […]. For the same molecule, the “CK1δ-induced nuclear translocation of mCherry-PER3” value [13] was “inhibited the nuclear translocation of mCherry-PER3”.
